Experimental findings from ChEMBL document CHEMBL1130020, “Synthesis and characterization of technetium-99m-labeled tropanes as dopamine transporter-imaging agents” (J Med Chem, 1997) are described below.

This test concerns the target Sodium-dependent dopamine transporter (Rattus norvegicus, UniProt P23977). Nature of the test: In vitro binding affinity to Dopamine transporter in rat striatal homogenates using [125I]IPT20 as the ligand.

pKi: −log10 of the molar value.

Sequence of Sodium-dependent dopamine transporter (P23977 whole entry, looked up): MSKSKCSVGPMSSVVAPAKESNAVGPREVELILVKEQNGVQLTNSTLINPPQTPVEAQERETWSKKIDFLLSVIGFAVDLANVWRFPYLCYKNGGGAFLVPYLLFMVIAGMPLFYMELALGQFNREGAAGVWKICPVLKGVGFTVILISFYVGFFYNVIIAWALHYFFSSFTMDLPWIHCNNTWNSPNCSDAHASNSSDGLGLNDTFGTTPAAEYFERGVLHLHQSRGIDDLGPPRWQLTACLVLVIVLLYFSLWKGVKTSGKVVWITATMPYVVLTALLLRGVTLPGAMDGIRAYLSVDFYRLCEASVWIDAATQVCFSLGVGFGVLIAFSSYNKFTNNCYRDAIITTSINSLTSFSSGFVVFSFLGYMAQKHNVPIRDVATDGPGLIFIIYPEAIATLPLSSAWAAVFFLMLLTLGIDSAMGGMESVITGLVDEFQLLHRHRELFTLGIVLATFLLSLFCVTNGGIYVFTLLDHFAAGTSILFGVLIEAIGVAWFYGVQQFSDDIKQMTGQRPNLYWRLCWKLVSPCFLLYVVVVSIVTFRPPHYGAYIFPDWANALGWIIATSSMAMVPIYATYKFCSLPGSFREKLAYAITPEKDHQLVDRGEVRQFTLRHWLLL

In the case of `CN1C2CCC1[C@@H](CN(CCS)CCNCCS)[C@@H](c1ccc(Cl)cc1)C2` (stereo partly specified), the negative-log Ki (pKi) (usually −log10 of the Ki, conventionally taken in molar units) is 8.15.
